Laboratory results as given in ChEMBL document CHEMBL1777770, “Design, synthesis, inhibitory activity, and binding mode study of novel DNA methyltransferase 1 inhibitors” (Bioorg Med Chem Lett, 2010).
Calls of active or inactive are those of the source. The rule behind the calls is not given here.

Tests used:
[1] = target: DNA (cytosine-5)-methyltransferase 1 (Homo sapiens) (UniProt P26358); assay: Inhibition of human DNA methyltransferase using S-adenosyl-L-methionine substrate at 10 uM measured after 60 mins
[2] = target: DNA (cytosine-5)-methyltransferase 1 (Homo sapiens) (UniProt P26358); assay: Inhibition of human DNA methyltransferase using S-adenosyl-L-methionine substrate at 10 to 1000 uM measured after 60 mins
[3] = target: DNA (cytosine-5)-methyltransferase 1 (Homo sapiens) (UniProt P26358); assay: Inhibition of human DNA methyltransferase using S-adenosyl-L-methionine substrate at 1000 uM measured after 60 mins

DNA (cytosine-5)-methyltransferase 1 (Homo sapiens), sequence (P26358 whole entry): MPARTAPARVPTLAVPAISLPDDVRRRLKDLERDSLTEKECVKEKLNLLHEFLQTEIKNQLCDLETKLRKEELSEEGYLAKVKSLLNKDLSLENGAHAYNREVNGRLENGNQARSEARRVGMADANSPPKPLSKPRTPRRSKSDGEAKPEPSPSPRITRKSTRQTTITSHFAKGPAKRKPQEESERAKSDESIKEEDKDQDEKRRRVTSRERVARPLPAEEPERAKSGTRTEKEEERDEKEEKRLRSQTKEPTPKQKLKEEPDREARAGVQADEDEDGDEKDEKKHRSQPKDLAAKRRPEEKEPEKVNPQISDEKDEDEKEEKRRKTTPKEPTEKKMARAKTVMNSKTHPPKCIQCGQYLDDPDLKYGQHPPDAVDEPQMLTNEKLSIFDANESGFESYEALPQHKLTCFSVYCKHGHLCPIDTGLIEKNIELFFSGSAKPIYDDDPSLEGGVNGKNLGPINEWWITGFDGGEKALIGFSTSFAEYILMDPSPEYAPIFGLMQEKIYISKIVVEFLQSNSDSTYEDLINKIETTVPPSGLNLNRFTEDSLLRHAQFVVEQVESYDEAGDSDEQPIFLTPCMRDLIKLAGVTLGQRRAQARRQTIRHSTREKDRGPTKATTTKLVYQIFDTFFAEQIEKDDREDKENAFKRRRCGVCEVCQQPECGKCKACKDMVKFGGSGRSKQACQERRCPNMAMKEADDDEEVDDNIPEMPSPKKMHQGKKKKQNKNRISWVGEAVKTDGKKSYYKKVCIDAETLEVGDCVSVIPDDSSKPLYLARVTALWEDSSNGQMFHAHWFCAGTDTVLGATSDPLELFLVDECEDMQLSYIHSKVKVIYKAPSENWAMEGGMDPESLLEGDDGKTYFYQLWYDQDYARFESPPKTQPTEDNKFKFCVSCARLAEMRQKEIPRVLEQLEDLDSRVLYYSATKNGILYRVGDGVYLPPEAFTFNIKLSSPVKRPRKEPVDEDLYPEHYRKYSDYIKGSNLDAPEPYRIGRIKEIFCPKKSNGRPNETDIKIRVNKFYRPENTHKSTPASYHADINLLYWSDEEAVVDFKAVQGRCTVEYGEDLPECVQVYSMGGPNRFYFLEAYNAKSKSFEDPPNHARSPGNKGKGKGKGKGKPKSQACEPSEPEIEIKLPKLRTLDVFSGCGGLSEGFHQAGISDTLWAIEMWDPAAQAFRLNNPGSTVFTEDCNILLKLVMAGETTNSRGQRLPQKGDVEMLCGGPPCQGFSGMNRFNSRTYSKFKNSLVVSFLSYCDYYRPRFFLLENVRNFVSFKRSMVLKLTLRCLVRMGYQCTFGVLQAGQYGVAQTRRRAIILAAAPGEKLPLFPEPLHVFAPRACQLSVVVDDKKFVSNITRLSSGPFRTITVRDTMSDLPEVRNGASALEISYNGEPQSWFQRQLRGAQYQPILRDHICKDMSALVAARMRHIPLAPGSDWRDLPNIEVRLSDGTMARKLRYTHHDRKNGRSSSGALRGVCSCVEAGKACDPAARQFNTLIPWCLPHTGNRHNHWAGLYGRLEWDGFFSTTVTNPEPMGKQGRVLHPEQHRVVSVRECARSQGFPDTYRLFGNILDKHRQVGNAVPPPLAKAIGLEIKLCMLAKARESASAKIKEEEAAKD

SMILES | inhibition [1] | inhibition [2] | inhibition [3]
CC1=C(C)C(=O)N([C@@H](Cc2c[nH]c3ccccc23)C(=O)O)C1=O |  | Active | 
CC1=CC(=O)N([C@@H](Cc2c[nH]c3ccccc23)C(=O)O)C1=O |  | Active | 
O=C(O)[C@H](Cc1c[nH]c2ccccc12)N1C(=O)CCC1=O |  | inactive | 
O=C(O)[C@H](Cc1c[nH]c2ccccc12)N1C(=O)C=C(c2ccccc2)C1=O |  | Active | 

Other lines, results leading:

inhibition [1] | inhibition [2] | inhibition [3] | SMILES
60% | Active |  | O=C(O)[C@H](Cc1c[nH]c2ccccc12)N1C(=O)C=CC1=O
 |  | 34% | O=C(O)[C@H](Cc1c[nH]c2ccccc12)N1C(=O)c2ccccc2C1=O
